According to PMC6594753, “Cystic fibrosis drug ivacaftor stimulates CFTR channels at picomolar concentrations” (eLife, 2019):
Where “and” joins values, the source holds several entries; their conditions need not be identical. Equal values may be shown once.

Key:
G551D CFTR = molecular target: T1, G551D CFTR (Homo sapiens, UniProt P13569, G551D); experiment: Quasi-macroscopic current recording in excised inside-out patches from Xenopus laevis oocytes; type: biochemical
T1 construct: expressed in transfected cells; host or cells: Xenopus laevis oocytes injected with cRNA transcribed from mutated pGEMHE-CFTR
T1 sequence (P13569 whole entry G551D): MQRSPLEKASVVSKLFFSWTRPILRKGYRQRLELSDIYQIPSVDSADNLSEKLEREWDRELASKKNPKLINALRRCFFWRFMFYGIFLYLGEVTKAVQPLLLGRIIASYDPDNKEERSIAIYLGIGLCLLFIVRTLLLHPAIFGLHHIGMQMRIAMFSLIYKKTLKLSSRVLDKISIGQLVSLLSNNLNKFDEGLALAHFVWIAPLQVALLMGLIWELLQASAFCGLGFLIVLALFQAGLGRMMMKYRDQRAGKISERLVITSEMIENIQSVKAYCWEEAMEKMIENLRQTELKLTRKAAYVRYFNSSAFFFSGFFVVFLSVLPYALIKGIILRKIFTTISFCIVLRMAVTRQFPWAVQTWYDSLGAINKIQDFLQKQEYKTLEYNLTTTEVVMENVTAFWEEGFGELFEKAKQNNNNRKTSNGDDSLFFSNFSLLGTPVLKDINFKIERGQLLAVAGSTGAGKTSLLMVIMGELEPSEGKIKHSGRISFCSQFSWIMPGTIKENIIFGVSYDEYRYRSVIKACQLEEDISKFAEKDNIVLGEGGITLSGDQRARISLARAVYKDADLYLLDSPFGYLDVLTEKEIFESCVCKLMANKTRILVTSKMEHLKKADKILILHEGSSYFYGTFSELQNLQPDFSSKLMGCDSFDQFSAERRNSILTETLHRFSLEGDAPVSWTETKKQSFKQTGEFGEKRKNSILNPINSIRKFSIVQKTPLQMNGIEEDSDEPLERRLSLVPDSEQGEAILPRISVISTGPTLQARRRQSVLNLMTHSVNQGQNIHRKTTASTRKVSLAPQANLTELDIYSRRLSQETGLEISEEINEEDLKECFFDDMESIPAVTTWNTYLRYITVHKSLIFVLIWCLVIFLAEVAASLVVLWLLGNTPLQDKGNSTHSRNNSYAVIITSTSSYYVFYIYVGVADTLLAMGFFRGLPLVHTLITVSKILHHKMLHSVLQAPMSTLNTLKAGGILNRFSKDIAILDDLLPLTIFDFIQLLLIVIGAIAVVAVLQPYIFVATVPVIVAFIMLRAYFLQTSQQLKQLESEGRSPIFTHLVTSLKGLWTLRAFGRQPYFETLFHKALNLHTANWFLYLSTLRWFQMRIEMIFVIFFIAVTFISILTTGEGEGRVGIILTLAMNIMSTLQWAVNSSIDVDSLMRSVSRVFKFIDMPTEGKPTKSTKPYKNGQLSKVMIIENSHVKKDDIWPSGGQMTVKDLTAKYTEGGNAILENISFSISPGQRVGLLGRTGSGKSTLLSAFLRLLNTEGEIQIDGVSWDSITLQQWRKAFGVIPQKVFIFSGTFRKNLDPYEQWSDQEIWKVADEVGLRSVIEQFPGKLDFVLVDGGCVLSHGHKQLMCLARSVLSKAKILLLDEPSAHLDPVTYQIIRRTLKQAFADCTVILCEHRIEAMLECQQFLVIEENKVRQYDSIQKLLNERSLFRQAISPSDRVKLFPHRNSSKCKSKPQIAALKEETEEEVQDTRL
Source text: (§1) We reasoned that this circumstance might explain some of the puzzling features of the drug, such as CFTR channel inactivation observed in some cases ([Cholon et al., 2014]), as well as apparent irreversibility of drug effects ([Jih and Hwang, 2013]; [Lin et al., 2016]; [Yeh et al., 2015]; [Yeh et al., 2017]; [Wang et al., 2014]; [Wang et al., 2018]). To investigate stability and reversibility of Vx-770 effects in a concentration range that can be achieved in the human body during oral drug administration, we tested the effects of our 1x saturated Vx-770 solution and its dilutions in inside-out patches excised from Xenopus laevis oocytes expressing WT or mutant human CFTR channels.
(§2) The G551D and ΔF508 mutations were introduced into pGEMHE-CFTR using the QuikChange Kit (Agilent, Santa Clara, CA, USA), and confirmed by automated sequencing; cDNA was purified (HiSpeed Plasmid Midi Kit, Qiagen), transcribed in vitro (mMessage T7 Kit, ThermoFisher Scientific, Waltham, MA USA) and cRNA stored at −80°C.
(§3) Patch pipette solution contained (in mM): 136 NMDG-Cl, 2 MgCl2, 5 HEPES, pH = 7.4 with NMDG. Bath solution contained (in mM): 134 NMDG-Cl, 2 MgCl2, 5 HEPES, 0.5 EGTA, pH = 7.1 with NMDG. MgATP (2 mM) was added from a 400 mM aqueous stock solution (pH = 7.1 with NMDG). Before each experiment 300 nM catalytic subunit of PKA (Sigma-Aldrich Kft., Budapest, Hungary) was applied for ~1 min to phosphorylate CFTR channels. Vx-770 (Selleck Chemicals) was diluted into the bath solution either from a ‘1x saturated’ aqueous stock solution (see above, concentration ~62 nM), or from a commercially obtained 10 mM stock dissolved in DMSO (Selleck Chemicals). Following patch excision the patch pipette was moved into a flow chamber, and recordings were done under continuous superfusion of the cytosolic patch surface. Solution compositions were exchanged using computer-driven electronic valves (solution exchange time constant <50 ms). After each recording day perfusion tubings were extensively washed with distilled water. Although supersaturated solutions of Vx-770 were not employed here, any perfusion tubing that had ever been in contact with a given concentration of Vx-770 was subsequently used only for solutions that contained the same, or higher, concentrations of the drug. After every 5–6 experimental days the entire perfusion system was replaced. Currents were recorded at 25°C, at a membrane potential of −40 mV, digitized at 10 kHz, Gaussian-filtered at 2 kHz, and recorded to disk (Axopatch 200B, Digidata 1322A, Pclamp9 (Molecular Devices, RRID: SCR_011323)). For display purposes, currents are shown filtered at 10 Hz and sampled at 20 Hz, and expanded single-channel traces (Figure 2b, Figure 4d) are shown filtered at 50 Hz and sampled at 250 Hz.
(§4) Vx-770 was applied after currents elicited by 2 mM ATP had stabilized. To allow for full development of its potentiator effect, Vx-770 was superfused until the current reached steady state which, for low nanomolar Vx-770, required up to 5–6 min. After full stimulation, Vx-770 was washed off for at least 5 min to allow the current to decline to a post-drug steady state. Fractional current stimulation by Vx-770 (I/Icontrol) was calculated as the mean steady current in the presence of the drug, divided by the average of the pre- and post-drug mean steady currents. Dose response curves (Figure 3c,f) were least-squares fitted to the modified Hill equation I/Icontrol=(K0.5^n+(Imax/Icontrol)[Vx-770]^n)/(K0.5^n+[Vx-770]^n), with Imax/Icontrol, K0.5, and n as free parameters.
(§5) To obtain apparent deactivation rates, current decay time courses following Vx-770 removal were fitted by single exponentials using least squares, and deactivation rates defined as the inverse of the decay time constant (1/τoff; Figure 4c). To obtain apparent activation rates, current activation time courses upon Vx-770 addition were fitted to an empirical three-step kinetic scheme S1→S2→S3→S4. […]

ΔF508 CFTR = molecular target: T2, ΔF508 CFTR (Homo sapiens, UniProt P13569, DEL508-508); experiment: as above; type: biochemical
T2 construct: expressed in transfected cells; host or cells: Xenopus laevis oocytes injected with cRNA transcribed from mutated pGEMHE-CFTR
T2 sequence (P13569 with tags, fused parts or gaps DEL508-508): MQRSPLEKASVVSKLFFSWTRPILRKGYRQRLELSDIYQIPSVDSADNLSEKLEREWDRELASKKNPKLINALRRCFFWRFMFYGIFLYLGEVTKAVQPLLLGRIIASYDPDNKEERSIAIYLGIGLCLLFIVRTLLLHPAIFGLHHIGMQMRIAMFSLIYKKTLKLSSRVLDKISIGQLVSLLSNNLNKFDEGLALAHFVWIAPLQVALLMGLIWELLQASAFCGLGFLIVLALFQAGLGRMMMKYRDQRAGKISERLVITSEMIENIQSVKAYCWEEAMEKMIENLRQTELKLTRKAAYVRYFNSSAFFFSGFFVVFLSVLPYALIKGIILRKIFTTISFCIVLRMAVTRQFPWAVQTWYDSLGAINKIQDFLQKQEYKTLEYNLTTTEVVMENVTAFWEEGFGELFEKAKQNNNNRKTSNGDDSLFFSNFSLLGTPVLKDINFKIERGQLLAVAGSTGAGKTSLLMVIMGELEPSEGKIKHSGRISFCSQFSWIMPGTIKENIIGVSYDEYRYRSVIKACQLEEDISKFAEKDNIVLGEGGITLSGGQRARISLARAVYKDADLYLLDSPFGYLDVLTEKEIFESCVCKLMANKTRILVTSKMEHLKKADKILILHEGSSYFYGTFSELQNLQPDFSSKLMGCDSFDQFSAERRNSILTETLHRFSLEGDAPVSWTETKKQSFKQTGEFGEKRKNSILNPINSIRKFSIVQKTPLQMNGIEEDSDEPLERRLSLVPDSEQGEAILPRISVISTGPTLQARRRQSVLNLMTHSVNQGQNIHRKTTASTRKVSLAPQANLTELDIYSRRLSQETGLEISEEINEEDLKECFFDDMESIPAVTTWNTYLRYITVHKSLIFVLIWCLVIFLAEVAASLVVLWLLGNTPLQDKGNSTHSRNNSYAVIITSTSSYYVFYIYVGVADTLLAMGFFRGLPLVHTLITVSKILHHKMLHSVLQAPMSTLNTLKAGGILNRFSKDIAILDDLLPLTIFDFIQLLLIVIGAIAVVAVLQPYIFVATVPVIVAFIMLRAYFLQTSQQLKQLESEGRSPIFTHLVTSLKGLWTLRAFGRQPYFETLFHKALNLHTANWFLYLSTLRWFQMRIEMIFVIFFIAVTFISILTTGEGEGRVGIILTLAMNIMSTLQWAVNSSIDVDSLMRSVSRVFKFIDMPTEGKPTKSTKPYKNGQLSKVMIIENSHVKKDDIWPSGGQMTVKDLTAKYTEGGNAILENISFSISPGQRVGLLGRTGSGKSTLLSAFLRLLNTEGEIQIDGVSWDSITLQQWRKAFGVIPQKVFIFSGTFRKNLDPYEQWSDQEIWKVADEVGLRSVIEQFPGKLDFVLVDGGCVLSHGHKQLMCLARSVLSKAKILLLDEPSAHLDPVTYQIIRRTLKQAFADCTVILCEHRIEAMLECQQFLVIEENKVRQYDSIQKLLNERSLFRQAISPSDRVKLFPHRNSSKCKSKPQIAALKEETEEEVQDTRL
Source text: as §1, §2, §3, §4, §5

[1] = diluted from 1x saturated aqueous stock, 2 mM ATP, read-out: K0.5 for current stimulation

Hill coefficient (G551D CFTR): 1.22±0.10
potency higher than previously reported (G551D CFTR): ~ 200 fold
reversibility of current stimulation (G551D CFTR): fully reversible
time constant of reversal (G551D CFTR): ~ 2 min
EC50 (G551D CFTR; [1]): 1.42 nM and ~1.5 nM
Hill coefficient (ΔF508 CFTR): 1.12±0.07
reversibility of current stimulation (ΔF508 CFTR): fully reversible
time constant of reversal (ΔF508 CFTR): ~ 2 min
EC50 (ΔF508 CFTR; [1]): 1.53 nM and ~1.5 nM
SMILES: CC(C)(C)c1cc(C(C)(C)C)c(NC(=O)c2c[nH]c3ccccc3c2=O)cc1O [Vx-770, ivacaftor]
